The values below come from patent US7915268B2, “8-substituted 2-(benzimidazolyl)purine derivatives for immunosuppression” (Wyeth LLC, priority 2006, dated 2011).

The target of the experiment is T1, Jak3 (Homo sapiens, UniProt P52333).
T1 construct: catalytic domain of Jak3 (508aa to 1124aa); made in house; host or cells: Sf9 insect cells (baculovirus, pFastBac 1)
T1 sequence (P52333 508-1124): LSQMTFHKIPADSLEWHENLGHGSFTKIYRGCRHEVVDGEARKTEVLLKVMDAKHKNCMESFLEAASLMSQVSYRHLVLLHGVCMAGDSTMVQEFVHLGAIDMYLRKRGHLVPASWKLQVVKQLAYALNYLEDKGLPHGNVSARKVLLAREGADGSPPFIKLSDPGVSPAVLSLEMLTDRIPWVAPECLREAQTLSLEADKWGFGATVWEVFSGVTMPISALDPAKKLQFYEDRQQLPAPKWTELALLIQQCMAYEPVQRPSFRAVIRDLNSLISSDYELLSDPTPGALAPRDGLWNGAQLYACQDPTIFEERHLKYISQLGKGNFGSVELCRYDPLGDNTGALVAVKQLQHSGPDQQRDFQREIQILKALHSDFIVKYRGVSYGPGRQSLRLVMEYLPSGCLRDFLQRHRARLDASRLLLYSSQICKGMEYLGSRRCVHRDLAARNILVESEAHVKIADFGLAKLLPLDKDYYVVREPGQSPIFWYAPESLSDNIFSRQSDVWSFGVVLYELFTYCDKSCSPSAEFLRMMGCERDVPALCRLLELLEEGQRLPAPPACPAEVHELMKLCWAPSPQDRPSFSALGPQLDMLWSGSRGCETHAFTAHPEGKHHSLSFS
The experiment in a line: Jak3 Kinase Assay (HTRF, GST-Jak3 catalytic domain). Format: biochemical. Conditions: 1 μM ATP, 60-min incubation, read-out: Jak 3 (Converted). Here is the method:
Human Jak3 cDNA was amplified by PCR. A fragment encoding the catalytic domain of Jak3 (508aa to 1124aa) was ligated with GST at 5′ end. This fused GST-Jak3 DNA fragment was cloned into the EcoRI site of the donor plasmid pFastBac 1 (Life Technologies #10359-016). The transformation, transposition, and transfection of insect cells (Sf9) were performed according to the manufacture's instructions. The cell lysate containing recombinant GST-Jak3 was used in the kinase assay. Anti-GST antibody (10 μg/ml, Sigma #G1417) was coated onto a 384-well plate at 4° C. overnight. Cell lysate containing GST-Jak3 (1:100 dilution) was added to the anti-GST coated plates, and GST-Jak3 was captured by immobilized anti-GST antibody. Testing compounds and substrate mix (50 mM HEPES, pH 7, 0.5 mM Na3VO4, 25 mM MgCl2, 1 mM DTT, 0.005% BSA, 1 μM ATP, and 4.5 μg/ml biotinyl poly-Glu, Ala, Tyr) were added to the plate to initiate the reaction. After a 60-min incubation, the reaction was stopped by 4 mM EDTA, and phosphorylation of biotinyl poly-Glu, Ala, Tyr was detected using 17 μg/ml Cy5-streptavidin (Amersham, #PA92005) and 2.7 μg/ml Europium-conjugated anti-phosphotyrosine antibody (PerkinElmer #AD0069) using homogeneous time-resolved fluorescence (HTRF) technology.
For orientation: In TR-FRET formats the signal depends on donor and acceptor labels being close together.
Turning to `COc1cccc(-c2nc3cnc(-n4cnc5ccc(C#N)cc54)nc3n2C2CCOCC2)c1` [Example 4], the IC50 lay in the range of 0.1 to 1 µM.

Regarding `Fc1ccc2ncn(-c3ncc4nc(-c5cncnc5)n(C5CCOCC5)c4n3)c2c1` [Example 38], the IC50 is less than 0.1 µM.

For `N#Cc1ccc2ncn(-c3ncc4nc(NCC5CCCO5)n(C5CCOCC5)c4n3)c2c1` (stereo not shown) [Example 93], the IC50 is less than 0.1 µM.

As to `Cn1cccc1-c1nc2cnc(-n3cnc4ccc(F)cc43)nc2n1C1CCOCC1` [Example 50], the IC50 was 0.1 to 1 µM.

As to `Fc1ccc2ncn(-c3ncc4nc(-c5cncnc5)n([C@@H]5CCOc6c(F)cccc65)c4n3)c2c1` [Example 55], the IC50 was less than 0.1 µM.

As for `Fc1ccc2ncn(-c3ncc4nc(-c5ccc(F)nc5)n(C5CCOCC5)c4n3)c2c1` [Example 46], the IC50 was less than 0.1 µM.

In the case of `Oc1cccc(-c2nc3cnc(-n4cnc5ccc(Cl)cc54)nc3n2C2CCOCC2)c1` [Example 40], the IC50 is less than 0.1 µM.

For the compound `N#Cc1ccc2ncn(-c3ncc4nc(NCCN5CCOCC5)n(C5CCOCC5)c4n3)c2c1` [Example 95], the IC50 is less than 0.1 µM.

In the case of `COc1ccc(-c2nc3cnc(-n4cnc5ccc(F)cc54)nc3n2C2CCOCC2)cn1` [Example 63], the IC50 was less than 0.1 µM.

Regarding `CO[C@H]1CC[C@H](n2c(C)nc3cnc(-n4cnc5ccc(C#N)cc54)nc32)CC1` [Example 23], the IC50 was in the range of 0.1 to 1 µM.

As to `Cc1nc2cnc(-n3cnc4ccc(Cl)cc43)nc2n1C1CCOCC1` [Example 74], the IC50 was less than 0.1 µM.

Consider `Nc1ncc(-c2nc3cnc(-n4cnc5ccc(F)cc54)nc3n2C2CCOCC2)cn1` [Example 59], for which the IC50 is less than 0.1 µM.

Consider `CC(C)Sc1nccc(-c2nc3cnc(-n4cnc5ccc(C#N)cc54)nc3n2[C@@H]2CCOc3c(F)ccc(F)c32)n1` [Example 20], for which the IC50 fell in the range of 0.1 to 1 µM.

As for `Fc1cccc2c1COC[C@H]2n1c(-c2ccccc2)nc2cnc(-n3cnc4ccccc43)nc21` [Example 87], the IC50 lay in the range of 0.1 to 1 µM.

With `CO[C@H]1CC[C@H](n2c(C)nc3cnc(-n4cnc5ccc(OC(F)(F)F)cc54)nc32)CC1` [Example 26], the IC50 was in the range of 0.1 to 1 µM.

`Fc1cccc2c1COCC2n1c(-c2ccccc2)nc2cnc(-n3cnc4ccccc43)nc21` (stereo not shown) [Example 86, 2-(1H-benzo[d]imidazol-1-yl)-9-(8-fluoroisochroman-4-yl)-8-phenyl-9H-purine]: the IC50 is greater than 1 µM.

In the case of `Fc1ccc2ncn(-c3ncc4nc(-c5ccoc5)n(C5CCOCC5)c4n3)c2c1` [Example 70], the IC50 was less than 0.1 µM.

For the compound `CS(=O)(=O)Nc1cccc(-c2nc3cnc(-n4cnc5ccc(C#N)cc54)nc3n2C2CCOCC2)c1` [Example 14], the IC50 was less than 0.1 µM.

For the compound `N#Cc1ccc2ncn(-c3ncc4nc(-c5cncnc5)n([C@@H]5CCOc6ccccc65)c4n3)c2c1` [Example 11], the IC50 was less than 0.1 µM.

In the case of `N#Cc1ccc2ncn(-c3ncc4nc(Cl)n(C5CCOCC5)c4n3)c2c1` [Example 101], the IC50 was less than 0.1 µM.

Turning to `Fc1ccc2ncn(-c3ncc4nc(-c5cccc(OC(F)(F)F)c5)n(C5CCOCC5)c4n3)c2c1` [Example 58], the IC50 is greater than 1 µM.

For `Cc1nc2cnc(-n3cnc4ccc(OC(F)(F)F)cc43)nc2n1[C@@H]1CCOc2c(F)cccc21` [Example 75], the IC50 was 0.1 to 1 µM.

In the case of `COC1CCN([C@H]2C(C)=Nc3cnc(-n4cnc5ccc(F)cc54)nc32)CC1` [Example 21], the IC50 was 0.1 to 1 µM.

Turning to `Cc1nc2cnc(-n3cnc4ccc(OC(F)(F)F)cc43)nc2n1C1CCOCC1` [Example 76, 8-Methyl-9-(tetrahydro-2H-pyran-4-yl)-2-(6-(trifluoromethoxy)-1H-benzo[d]imidazol-1-yl)-9H-purine], the IC50 is less than 0.1 µM.

For `COCCC(C)n1c(-c2c[nH]c3ccccc23)nc2cnc(-n3cnc4ccc(F)cc43)nc21` (stereo not shown) [Example 27], the IC50 fell in the range of 0.1 to 1 µM.

As for `CC(=O)Nc1ccc(-c2nc3cnc(-n4cnc5ccc(C#N)cc54)nc3n2C2CCOCC2)cc1` [Example 7], the IC50 is less than 0.1 µM.

With `O=c1ccc(-c2nc3cnc(-n4cnc5ccc(F)cc54)nc3n2C2CCOCC2)c[nH]1` [Example 61], the IC50 was in the range of 0.1 to 1 µM.

In the case of `N#Cc1ccc2ncn(-c3ncc4nc(Nc5cccnc5)n([C@@H]5CCOc6ccccc65)c4n3)c2c1` [Example 104], the IC50 was less than 0.1 µM.

On to `Cc1cccc(-c2nc3cnc(-n4cnc5ccc(C#N)cc54)nc3n2C2CCOCC2)c1` [Example 12], for which the IC50 was 0.1 to 1 µM.

With `Fc1ccc2ncn(-c3ncc4nc(-c5ccc(C(F)(F)F)nc5)n(C5CCOCC5)c4n3)c2c1` [Example 51], the IC50 was less than 0.1 µM.

`Cc1nc2cnc(-n3cnc4ccc(C#N)cc43)nc2n1C1CCOc2ccc(F)cc21` (stereo not shown) [Example 24]: the IC50 was less than 0.1 µM.

Consider `Fc1ccc2ncn(-c3ncc4nc(-c5ccc(Br)nc5)n(C5CCOCC5)c4n3)c2c1` [Example 36], for which the IC50 is less than 0.1 µM.

Consider `[O-][n+]1ccc(-c2nc3cnc(-n4cnc5ccc(F)cc54)nc3n2C2CCOCC2)cc1` [Example 88], for which the IC50 was 0.1 to 1 µM.

Consider `CO[C@H]1CC[C@H](n2c(C)nc3cnc(-n4cnc5ccc(Cl)cc54)nc32)CC1` [Example 73], for which the IC50 was in the range of 0.1 to 1 µM.

As for `N#Cc1cccc(Nc2nc3cnc(-n4cnc5ccc(Cl)cc54)nc3n2C2CCOCC2)c1` [Example 110], the IC50 was greater than 1 µM.

Turning to `CO[C@H]1CC[C@H](n2c(-c3cncnc3)nc3cnc(-n4cnc5ccc(Cl)cc54)nc32)CC1` [Example 29], the IC50 was in the range of 0.1 to 1 µM.

As to `N#Cc1ccc2ncn(-c3ncc4nc(-c5cncnc5)n(C5CCOCC5)c4n3)c2c1` [Example 1], the IC50 was less than 0.1 µM.

In the case of `CCc1nc2cnc(-n3cnc4ccc(F)cc43)nc2n1[C@@H]1CCOc2ccccc21` [Example 79], the IC50 was less than 0.1 µM.

For the compound `Fc1ccc2ncn(-c3ncc4nc(-c5cccc(Br)c5)n(C5CCOCC5)c4n3)c2c1` [Example 57], the IC50 is greater than 1 µM.

On to `CN(C)c1ncc(-c2nc3cnc(-n4cnc5ccc(C#N)cc54)nc3n2C2CCOCC2)cn1` [Example 17], for which the IC50 was less than 0.1 µM.

Consider `N#Cc1ccc2ncn(-c3ncc4nc(-c5cncnc5)n([C@@H]5CCOc6ccc(F)cc65)c4n3)c2c1` [Example 2], for which the IC50 is less than 0.1 µM.

As to `Nc1nccc(-c2nc3cnc(-n4cnc5ccc(F)cc54)nc3n2C2CCOCC2)n1` [Example 53], the IC50 was less than 0.1 µM.

With `Cn1cncc1-c1nc2cnc(-n3cnc4ccc(F)cc43)nc2n1C1CCOCC1` [Example 39], the IC50 was less than 0.1 µM.

As to `N#Cc1ccc2ncn(-c3ncc4nc(-c5cccnc5)n([C@@H]5CCOc6c(F)cccc65)c4n3)c2c1` [Example 5], the IC50 is less than 0.1 µM.

Take `CC(C)(C)c1nc2cnc(-n3cnc4ccc(F)cc43)nc2n1C1CCOCC1` [Example 34]: the IC50 is less than 0.1 µM.

For the compound `c1ccc(-c2nc3cnc(-n4cnc5ccccc54)nc3n2C2CCOCC2)cc1` [Example 91], the IC50 lay within 0.1 to 1 µM.

For the compound `Clc1ccc2ncn(-c3ncc4nc(-c5cncnc5)n(C5CCOCC5)c4n3)c2c1` [Example 65], the IC50 was less than 0.1 µM.

For `Cc1nc2cnc(-n3cnc4ccc(F)cc43)nc2n1[C@@H]1CCOc2ccccc21` [Example 78], the IC50 was less than 0.1 µM.

Take `Cc1nc2cnc(-n3cnc4ccccc43)nc2n1C1COCc2c(F)cccc21` (stereo not shown) [Example 80]: the IC50 lay within 0.1 to 1 µM.

Take `Nc1nccc(-c2nc3cnc(-n4cnc5ccc(Cl)cc54)nc3n2C2CCOCC2)n1` [Example 43]: the IC50 was less than 0.1 µM.

For the compound `N#Cc1ccc2ncn(-c3ncc4nc(-c5cnc(N)nc5)n(C5CCOCC5)c4n3)c2c1` [Example 9], the IC50 is less than 0.1 µM.

Take `N#Cc1ccc2ncn(-c3ncc4nc(Nc5cccc(C(F)(F)F)c5)n([C@@H]5CCOc6ccccc65)c4n3)c2c1` [Example 106]: the IC50 was in the range of 0.1 to 1 µM.

Consider `c1ccc(Cn2c(-c3ccccc3)nc3cnc(-n4cnc5ccccc54)nc32)cc1` [Example 89], for which the IC50 was greater than 1 µM.

In the case of `Fc1ccc2ncn(-c3ncc4nc(Cl)n([C@@H]5CCOc6c(F)cccc65)c4n3)c2c1` [Example 102, 8-chloro-2-(6-fluoro-1H-benzo[d]imidazol-1-yl)-9-((R)-8-fluorochroman-4-yl)-9H-purine], the IC50 was less than 0.1 µM.

Take `Cc1nc2cnc(-n3cnc4ccccc43)nc2n1C1CCOCC1` [Example 83]: the IC50 is less than 0.1 µM.
